Experimental data: US20260130933A1, “PHARMACEUTICAL COMPOSITION FOR PREVENTION OR TREATMENT OF NEPHROPATHY AND/OR DIABETES MELLITUS, COMPRISING ENAVOGLIFLOZIN” (DAEWOONG PHARMACEUTICAL CO., LTD., priority 2022, published 2026)

Test: Example 2: phase 3 trial, enavogliflozin 0.3 mg vs dapagliflozin 10 mg once a day for 24 weeks added to metformin in patients with type 2 diabetes (same efficacy, exploratory and safety endpoints)
Assay type: in vivo, human
Method: Subjects who met the inclusion/exclusion criteria were administered a placebo of the clinical trial drug under single-blind (subject blinding) conditions during a 2-week run-in period while continuing to receive metformin. […] The randomized subjects were administered two tablets of the clinical trial drug for each administration group once a day, and then visited the institution at weeks 6, 12, 18, and 24 during the 24-week administration period to conduct efficacy and safety evaluations.
• 1. Change in HbA1c at week 24 after administration of clinical trial drug compared to Visit 2 (randomization)
• 1. Change in HbA1c at each time point of weeks 6, 12, and 18 after administration of clinical trial drug compared to Visit 2 (randomization) • 2. Change in FPG at each time point of weeks 6, 12, 18, and 24 after administration of clinical trial drug compared to Visit 2 (randomization) • 3. Proportion of subjects achieving HbA1c<7% at each time point of weeks 6, 12, 18, and 24 after administration of clinical trial drug • 4. Proportion of subjects achieving HbA1c<6.5% at each time point of weeks 6, 12, 18, and 24 after administration of clinical trial drug • 5. Proportion of subjects achieving therapeutic response (HbA1c change (HbA1c at Visit 2-HbA1c at each evaluation time point)>0.5% or HbA1c<7% at each evaluation time point compared to Visit 2 (randomization)) at each time point of weeks 6, 12, 18 and 24 after administration of clinical trial drug
• 1. Change in fasting c-peptide at each time point of weeks 6, 12, 18, and 24 after administration of clinical trial drug compared to Visit 2 (randomization) • 2. Change in body weight at each time point of weeks 6, 12, 18, and 24 after administration of clinical trial drug compared to Visit 2 (randomization) • 3. Change in fasting lipid concentration (total cholesterol, LDL-C, HDL-C, and triglycerides) at each time point of weeks 6, 12, 18, and 24 after administration of clinical trial drug compared to Visit 2 (randomization) • 4. Changes in systolic or diastolic blood pressure at each time point of weeks 6, 12, 18, and 24 after administration of clinical trial drug compared to Visit 2 (randomization) • 5. Changes in β-cell function and insulin resistance measured by HOMA-β and HOMA-IR at each time point of weeks 6, 12, 18, and 24 after administration of clinical trial drug compared to Visit 2 (randomization) • 6. Changes in renal function-related indicators (UACR, UGCR) measured by UACR at each time point of weeks 6, 12, 18, and 24 after administration of clinical trial drug compared to Visit 2 (randomization) • 7. Changes in obesity-related indicators (adiponectin, leptin) at each time point of weeks 6, 12, 18, and 24 after administration of clinical trial drug compared to Visit 2 (randomization)

[1] = Week 6, PPS, enavogliflozin minus dapagliflozin
[2] = Week 6, mPPS1, enavogliflozin minus dapagliflozin
[3] = Week 6, mPPS2, enavogliflozin minus dapagliflozin
[4] = Week 12, PPS, enavogliflozin minus dapagliflozin

OC[C@H]1O[C@@H](c2cc(Cc3ccc(C4CC4)cc3)c(Cl)c3c2CCO3)[C@H](O)[C@@H](O)[C@@H]1O [Enavogliflozin, (2S,3R,4R,5S,6R)-2-(7-chloro-6 (4-cyclopropylbenzyl)-2,3-dihydrobenzofuran-4-yl)-6-(hydroxymethyl)tetrahydro-2H-pyran-3,4,5-triol]
UGCR change from baseline, LS mean difference [1]: 15.62 mg/mg
leptin change from baseline, LS mean difference [1]: -0.81 ng/mL
HDL-C change from baseline, ANCOVA LS mean (SE) (Week 6, mPPS1): 1.11(0.58) mg/dL
HDL-C change from baseline, Mean (SD) (Week 6, mPPS1): 1.18(5.14) mg/dL
HDL-C change from baseline, Median (Week 6, mPPS1): 1.00 mg/dL
HDL-C, Mean (SD) (Week 6, mPPS1): 52.12(11.10) mg/dL
HDL-C, Median (Week 6, mPPS1): 51.00 mg/dL
LDL-C change from baseline, ANCOVA LS mean (SE) (Week 6, mPPS1): −0.09(1.89) mg/dL
LDL-C change from baseline, Mean (SD) (Week 6, mPPS1): −0.67(15.12) mg/dL
LDL-C change from baseline, Median (Week 6, mPPS1): -2.00 mg/dL
LDL-C, Mean (SD) (Week 6, mPPS1): 85.85(31.51) mg/dL
LDL-C, Median (Week 6, mPPS1): 79.00 mg/dL
Triglycerides change from baseline, ANCOVA LS mean (SE) (Week 6, mPPS1): 8.62(6.88) mg/dL
Triglycerides change from baseline, Mean (SD) (Week 6, mPPS1): 9.49(73.63) mg/dL
Triglycerides change from baseline, Median (Week 6, mPPS1): -3.00 mg/dL
Triglycerides, Mean (SD) (Week 6, mPPS1): 131.59(114.93) mg/dL
Triglycerides, Median (Week 6, mPPS1): 97.00 mg/dL
HDL-C change from baseline, LS mean difference [2]: -0.49 mg/dL
LDL-C change from baseline, LS mean difference [2]: -4.29 mg/dL
triglycerides change from baseline, LS mean difference [2]: 18.76 mg/dL
Diastolic blood pressure change from baseline, ANCOVA LS mean (SE) (Week 6, mPPS2): −2.75 mmHg
Diastolic blood pressure change from baseline, Mean (SD) (Week 6, mPPS2): −2.80 mmHg
Diastolic blood pressure change from baseline, Median (Week 6, mPPS2): −3.00 mmHg
Diastolic blood pressure, Mean (SD) (Week 6, mPPS2): 74.25 mmHg
Diastolic blood pressure, Median (Week 6, mPPS2): 74.00 mmHg
Systolic blood pressure change from baseline, ANCOVA LS mean (SE) (Week 6, mPPS2): −3.29(1.02) mmHg
Systolic blood pressure change from baseline, Mean (SD) (Week 6, mPPS2): −3.28(9.34) mmHg
Systolic blood pressure change from baseline, Median (Week 6, mPPS2): −4.00 mmHg
Systolic blood pressure, Mean (SD) (Week 6, mPPS2): 126.44(14.45) mmHg
Systolic blood pressure, Median (Week 6, mPPS2): 128.00 mmHg
diastolic blood pressure change from baseline, LS mean difference [3]: −1.28 mmHg
systolic blood pressure change from baseline, LS mean difference [3]: −0.58 mmHg
Adiponectin change from baseline, ANCOVA LS mean (SE) (Week 12, PPS): 0.84 µg/mL
Adiponectin change from baseline, Mean (SD) (Week 12, PPS): 0.9 µg/mL
Adiponectin change from baseline, Median (Week 12, PPS): 0.68 µg/mL
Adiponectin, Mean (SD) (Week 12, PPS): 7.87 µg/mL
Adiponectin, Median (Week 12, PPS): 6.91 µg/mL
HOMA-IR change from baseline, ANCOVA LS mean (SE) (Week 12, PPS): −1.58
HOMA-IR change from baseline, Mean (SD) (Week 12, PPS): −1.36
HOMA-IR change from baseline, Median (Week 12, PPS): −0.99
HOMA-IR, Mean (SD) (Week 12, PPS): 2.10
HOMA-IR, Median (Week 12, PPS): 1.61
HOMA-β change from baseline, ANCOVA LS mean (SE) (Week 12, PPS): 5.57
HOMA-β change from baseline, Mean (SD) (Week 12, PPS): 5.59
HOMA-β change from baseline, Median (Week 12, PPS): 5.10
HOMA-β, Mean (SD) (Week 12, PPS): 51.45
HOMA-β, Median (Week 12, PPS): 41.60
Leptin change from baseline, ANCOVA LS mean (SE) (Week 12, PPS): -2.64 ng/mL
Leptin change from baseline, Mean (SD) (Week 12, PPS): -2.73 ng/mL
Leptin change from baseline, Median (Week 12, PPS): -1.45 ng/mL
Leptin, Mean (SD) (Week 12, PPS): 9.56 ng/mL
Leptin, Median (Week 12, PPS): 6.60 ng/mL
UACR change from baseline, ANCOVA LS mean (SE) (Week 12, PPS): -21.65 g/kg
UACR change from baseline, Mean (SD) (Week 12, PPS): -18.55 g/kg
UACR change from baseline, Median (Week 12, PPS): -1.40 g/kg
UACR, Mean (SD) (Week 12, PPS): 19.80 g/kg
UACR, Median (Week 12, PPS): 11.05 g/kg
UGCR change from baseline, ANCOVA LS mean (SE) (Week 12, PPS): 64.70 mg/mg
UGCR change from baseline, Mean (SD) (Week 12, PPS): 63.04 mg/mg
UGCR change from baseline, Median (Week 12, PPS): 58.91 mg/mg
UGCR, Mean (SD) (Week 12, PPS): 64.53 mg/mg
UGCR, Median (Week 12, PPS): 62.30 mg/mg
HOMA-IR change from baseline, LS mean difference [4]: 0.02
HOMA-β change from baseline, LS mean difference [4]: −3.17
UACR change from baseline, LS mean difference [4]: -18.27 g/kg
UGCR change from baseline, LS mean difference [4]: 19.57 mg/mg
leptin change from baseline, LS mean difference [4]: 0.07 ng/mL
HDL-C change from baseline, ANCOVA LS mean (SE) (Week 12, mPPS1): 2.31(0.60) mg/dL
HDL-C change from baseline, Mean (SD) (Week 12, mPPS1): 2.08(5.60) mg/dL
HDL-C change from baseline, Median (Week 12, mPPS1): 2.00 mg/dL
